Measured values reported in US10016424B2, “Method and pharmaceutical composition for use in the treatment of epilepsy” (INSERM (Institut National de la Sante et de la Recherche …, priority 2013, dated 2018).

How the values were obtained:
[1] = target: homomeric GluK2 receptors (Homo sapiens, UniProt Q13002); conditions: cited from earlier work
[2] = test system: pilocarpine-status epilepticus model of chronic TLE; assay: Ictal discharges, telemetric intrahippocampal EEG in freely-moving pilocarpine-treated mice; format: in vivo, mouse
Protocol: All experiments were approved by the Institut National de la Santé et de la Recherche Médicale animal care and use committee of May 29, 2001 (2001-464) and the European community council directive of Nov. 24, 1986 (86/609/EEC). Mice (FVB/N background) had access to food and water ad libitum and were housed under a 12 h light/dark cycle at 22-24° C. Male GluK2−/− and WT mice (P60-80) were given scopolamine (1 mg/kg) subcutaneously (s.c.) 15 minutes prior to s.c. administration of pilocarpine (200-600 mg/kg). A ramp protocol was used whereby animals were given an initial dose of 200 mg/kg followed by half-doses every 30 minutes until seizures appeared. Both WT and GluK2−/− mice typically experienced at least two seizures prior to entering status epilepticus (SE). Diazepam (10 mg/kg) was administered 45 minutes after onset of SE.
Naïve wildtype (WT) and pilocarpine-treated WT or GluK2−/− mice (5-6 months old) were anaesthetized with xylazine 13 mg/kg/ketamine 66 mg/kg and placed in a stereotaxic frame (supplemental dosing was administered as required). Body temperature was maintained using a heating pad. […] After a 4 day recovery, EEG (amplified (1000×), filtered at 0.16-97 Hz pass, acquired at 500 Hz) was monitored using a telemetric system (Data Sciences International, St. Paul, Minn.) for 4 days, 24 h per day. […]

GluK2/GluK5 receptors = GluK2/GluK5 receptors (Homo sapiens, UniProt Q13002+Q16478); conditions: cited from earlier work
Sequence of GluK2/GluK5 receptors (Q13002 32-908): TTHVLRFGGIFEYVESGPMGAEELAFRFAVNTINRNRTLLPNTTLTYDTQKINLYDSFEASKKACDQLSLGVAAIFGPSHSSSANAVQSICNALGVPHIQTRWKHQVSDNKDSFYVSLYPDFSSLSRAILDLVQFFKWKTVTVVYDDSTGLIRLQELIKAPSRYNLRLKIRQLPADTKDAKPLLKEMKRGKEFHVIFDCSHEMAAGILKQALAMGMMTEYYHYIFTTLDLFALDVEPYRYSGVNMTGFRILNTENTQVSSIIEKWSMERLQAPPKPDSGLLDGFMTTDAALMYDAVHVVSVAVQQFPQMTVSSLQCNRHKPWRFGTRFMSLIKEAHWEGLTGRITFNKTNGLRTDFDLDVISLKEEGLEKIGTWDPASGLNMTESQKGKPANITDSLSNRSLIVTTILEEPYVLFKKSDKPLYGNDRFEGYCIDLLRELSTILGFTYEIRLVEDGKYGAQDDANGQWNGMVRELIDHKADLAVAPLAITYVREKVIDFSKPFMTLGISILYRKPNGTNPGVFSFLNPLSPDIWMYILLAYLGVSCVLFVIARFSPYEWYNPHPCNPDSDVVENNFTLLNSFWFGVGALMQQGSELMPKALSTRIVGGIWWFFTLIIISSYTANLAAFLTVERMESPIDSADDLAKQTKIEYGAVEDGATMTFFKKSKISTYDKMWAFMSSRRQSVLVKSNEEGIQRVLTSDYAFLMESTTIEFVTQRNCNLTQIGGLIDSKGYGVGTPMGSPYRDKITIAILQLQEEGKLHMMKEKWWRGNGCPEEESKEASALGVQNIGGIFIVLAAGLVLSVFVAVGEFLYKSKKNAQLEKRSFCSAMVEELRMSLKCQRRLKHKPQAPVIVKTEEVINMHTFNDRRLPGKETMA
Sequence of GluK2/GluK5 receptors (Q16478 15-980): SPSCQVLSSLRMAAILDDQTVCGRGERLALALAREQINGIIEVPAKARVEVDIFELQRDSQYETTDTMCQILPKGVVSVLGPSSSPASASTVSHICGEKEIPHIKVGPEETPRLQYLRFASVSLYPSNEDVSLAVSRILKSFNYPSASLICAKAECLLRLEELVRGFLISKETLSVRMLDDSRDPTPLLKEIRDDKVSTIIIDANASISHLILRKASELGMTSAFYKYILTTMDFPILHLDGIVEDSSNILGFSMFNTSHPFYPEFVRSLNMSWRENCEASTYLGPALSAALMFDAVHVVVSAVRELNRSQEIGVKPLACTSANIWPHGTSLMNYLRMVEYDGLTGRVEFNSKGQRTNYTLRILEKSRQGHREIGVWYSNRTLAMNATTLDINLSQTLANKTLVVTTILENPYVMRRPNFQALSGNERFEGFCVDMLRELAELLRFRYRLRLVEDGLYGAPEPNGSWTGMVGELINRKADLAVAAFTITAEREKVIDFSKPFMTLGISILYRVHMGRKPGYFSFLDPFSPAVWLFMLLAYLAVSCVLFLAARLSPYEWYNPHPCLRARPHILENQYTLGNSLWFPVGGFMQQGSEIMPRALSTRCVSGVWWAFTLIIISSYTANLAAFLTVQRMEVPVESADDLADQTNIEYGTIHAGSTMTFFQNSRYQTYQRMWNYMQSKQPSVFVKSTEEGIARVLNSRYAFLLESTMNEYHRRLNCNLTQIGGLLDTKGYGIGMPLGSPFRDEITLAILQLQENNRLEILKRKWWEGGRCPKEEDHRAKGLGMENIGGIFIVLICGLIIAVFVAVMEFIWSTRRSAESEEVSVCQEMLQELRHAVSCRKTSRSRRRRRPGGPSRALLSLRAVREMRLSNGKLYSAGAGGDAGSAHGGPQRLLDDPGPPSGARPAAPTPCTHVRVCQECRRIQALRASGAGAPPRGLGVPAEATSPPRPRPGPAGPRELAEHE

[3] = test system: dentate gyrus of organotypic slices; assay: Spontaneous interictal-like activity, extracellular field recordings in pilocarpine-treated organotypic hippocampal slice cultures; format: cell-based, mouse; conditions: P=0.902, n=6

Sequence of homomeric GluK2 receptors (Q13002 32-908): as the sequence (Q13002 32-908) above

Cc1cn(C[C@H](N)C(=O)O)c(=O)n(Cc2ccsc2C(=O)O)c1=O [UBP310]
inhibition of homomeric GluK2 receptors [1]: not homomeric GluK2 receptors
change in duration of ictal events ([2]; 60 mg/kg intraperitoneal for 3 days, P=0.286): without a significant change
reduction of number of ictal events ([2]; 60 mg/kg intraperitoneal twice a day for 3 days, WT epileptic mice, freely moving): 41%
inhibition of heteromeric GluK2/GluK5 receptors (GluK2/GluK5 receptors): inhibits GluK2/GluK5
reduction of frequency of interictal-like activity in GluK1-/- versus WT mice [3]: similarly effective
